Measured values: paper PMC7265341, “Quantifying CDK inhibitor selectivity in live cells” (Nature Communications, 2020)
Read-outs that look alike come from different tables or passages of the source.

Columns and labels:
CDK17/Cyclin Y = CDK17/Cyclin Y (Homo sapiens, UniProt Q00537); test: NanoBRET live-cell target engagement, CDK17-NanoLuc/Cyclin Y in HEK-293; type: binding; details: CDK17/Y, read-out: Inhibition at 10µM (%)
CDK15/Cyclin Y = CDK15/Cyclin Y (Homo sapiens, UniProt Q96Q40); test: NanoBRET live-cell target engagement, NanoLuc-CDK15/Cyclin Y in HEK-293; type: binding
CDK19/Cyclin C = CDK19/Cyclin C (Homo sapiens, UniProt Q9BWU1); test: NanoBRET live-cell target engagement, NanoLuc-CDK19/Cyclin C in HEK-293; details: read-out: Inhibition at 10µM (%), CDK19/C
CDK20/Cyclin H = CDK20/Cyclin H (Homo sapiens, UniProt Q8IZL9); test: NanoBRET live-cell target engagement, NanoLuc-CDK20/Cyclin H in HEK-293; type: binding; details: read-out: Inhibition at 10µM (%), CDK20/H
CDK18/Cyclin Y = CDK18/Cyclin Y (Homo sapiens, UniProt Q07002); test: NanoBRET live-cell target engagement, CDK18-NanoLuc/Cyclin Y in HEK-293; type: binding; details: CDK18/Y, read-out: Inhibition at 10µM (%)
CDK6/Cyclin D1 = CDK6/Cyclin D1 (Homo sapiens, UniProt Q00534); test: NanoBRET live-cell target engagement, NanoLuc-CDK6/Cyclin D1 in HEK-293; type: binding; details: read-out: Inhibition at 10µM (%), CDK6/D1
CDK11A/Cyclin L2 = biological target: T1, CDK11A/Cyclin L2 (Homo sapiens, UniProt Q9UQ88); test: NanoBRET live-cell target engagement, CDK11A-NanoLuc/Cyclin L2 in HEK-293; type: binding; details: CDK11a/L2, read-out: Inhibition at 10µM (%)
T1 sequence (Q9UQ88 1-783): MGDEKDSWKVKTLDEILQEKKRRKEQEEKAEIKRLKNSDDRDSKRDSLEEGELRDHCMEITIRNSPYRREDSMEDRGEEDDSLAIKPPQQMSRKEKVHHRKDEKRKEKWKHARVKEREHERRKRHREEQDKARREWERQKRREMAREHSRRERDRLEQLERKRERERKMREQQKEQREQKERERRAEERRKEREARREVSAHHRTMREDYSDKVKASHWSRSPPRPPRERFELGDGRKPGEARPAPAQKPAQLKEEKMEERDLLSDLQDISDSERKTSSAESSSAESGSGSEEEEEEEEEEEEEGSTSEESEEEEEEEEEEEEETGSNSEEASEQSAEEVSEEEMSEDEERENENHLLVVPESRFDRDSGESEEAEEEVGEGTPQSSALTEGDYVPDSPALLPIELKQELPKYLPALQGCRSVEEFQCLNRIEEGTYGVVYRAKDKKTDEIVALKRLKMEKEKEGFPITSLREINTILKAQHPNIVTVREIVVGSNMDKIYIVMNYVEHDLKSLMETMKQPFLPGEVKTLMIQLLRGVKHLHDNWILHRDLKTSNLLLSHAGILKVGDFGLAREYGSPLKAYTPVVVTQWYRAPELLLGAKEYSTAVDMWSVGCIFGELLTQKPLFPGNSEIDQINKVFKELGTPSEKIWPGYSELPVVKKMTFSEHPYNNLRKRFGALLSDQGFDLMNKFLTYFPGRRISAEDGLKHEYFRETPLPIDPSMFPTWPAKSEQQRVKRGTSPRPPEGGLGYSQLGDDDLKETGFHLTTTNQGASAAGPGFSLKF

all 21 human CDKs = test: Live-cell selectivity profile across all 21 CDK/cyclin complexes in HEK-293; type: binding; details: remaining CDK family, live HEK-293; read-out: Collateral CDK (potency)
CDK10/Cyclin L2 = CDK10/Cyclin L2 (Homo sapiens, UniProt Q15131); test: NanoBRET live-cell target engagement, CDK10-NanoLuc/Cyclin L2 in HEK-293; details: read-out: Inhibition at 10µM (%), CDK10/L2
CDK13/Cyclin K = CDK13/Cyclin K (Homo sapiens, UniProt Q14004); test: NanoBRET live-cell target engagement, CDK13-NanoLuc/Cyclin K in HEK-293; type: binding; details: CDK13/K, read-out: Inhibition at 10µM (%)
CDK8/Cyclin C = CDK8/Cyclin C (Homo sapiens, UniProt P49336); test: NanoBRET live-cell target engagement, NanoLuc-CDK8/Cyclin C in HEK-293; type: binding; details: CDK8/C, read-out: Inhibition at 10µM (%)
CDK12/Cyclin K = CDK12/Cyclin K (Homo sapiens, UniProt Q9NYV4); test: NanoBRET live-cell target engagement, CDK12-NanoLuc/Cyclin K in HEK-293; type: binding; details: CDK12/K, read-out: Inhibition at 10µM (%)
CDK16/Cyclin Y = CDK16/Cyclin Y (Homo sapiens, UniProt Q00536); test: NanoBRET live-cell target engagement, CDK16-NanoLuc/Cyclin Y in HEK-293; type: binding; details: CDK16/Y, read-out: Inhibition at 10µM (%)
CDK11B/Cyclin L2 = CDK11B/Cyclin L2 (Homo sapiens, UniProt P21127); test: NanoBRET live-cell target engagement, CDK11B-NanoLuc/Cyclin L2 in HEK-293; type: binding; details: CDK11b/L2, read-out: Inhibition at 10µM (%)
CDK14/Cyclin Y = CDK14/Cyclin Y (Homo sapiens, UniProt O94921); test: NanoBRET live-cell target engagement, CDK14-NanoLuc/Cyclin Y in HEK-293; type: binding; details: CDK14/Y, read-out: Inhibition at 10µM (%)
CDK14/Cyclin Y, sequence (O94921 whole entry): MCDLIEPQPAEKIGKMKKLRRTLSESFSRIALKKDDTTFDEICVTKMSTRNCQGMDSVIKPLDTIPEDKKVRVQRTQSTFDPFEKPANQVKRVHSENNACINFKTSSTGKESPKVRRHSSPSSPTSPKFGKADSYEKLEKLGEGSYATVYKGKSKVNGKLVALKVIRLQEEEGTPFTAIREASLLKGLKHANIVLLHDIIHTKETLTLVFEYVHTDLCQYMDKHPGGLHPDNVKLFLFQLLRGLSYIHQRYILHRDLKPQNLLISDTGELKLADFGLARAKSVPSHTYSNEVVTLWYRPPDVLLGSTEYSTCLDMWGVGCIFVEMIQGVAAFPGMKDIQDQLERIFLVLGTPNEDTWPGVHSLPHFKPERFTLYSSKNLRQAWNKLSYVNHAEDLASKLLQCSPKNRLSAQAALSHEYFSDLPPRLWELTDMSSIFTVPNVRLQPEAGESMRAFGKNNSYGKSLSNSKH
CDK14/Cyclin Y, sequence (Q8ND76 whole entry partner): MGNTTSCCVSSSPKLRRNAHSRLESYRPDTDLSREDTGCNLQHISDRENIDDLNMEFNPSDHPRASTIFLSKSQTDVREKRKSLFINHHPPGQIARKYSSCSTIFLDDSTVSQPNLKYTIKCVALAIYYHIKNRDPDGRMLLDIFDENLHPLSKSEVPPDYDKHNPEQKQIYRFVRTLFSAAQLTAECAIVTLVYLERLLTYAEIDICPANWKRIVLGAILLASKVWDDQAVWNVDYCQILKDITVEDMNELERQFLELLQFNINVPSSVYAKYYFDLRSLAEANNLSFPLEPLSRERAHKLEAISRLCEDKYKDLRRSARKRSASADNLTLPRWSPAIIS

CDK17/Cyclin Y, sequence (Q00537 whole entry): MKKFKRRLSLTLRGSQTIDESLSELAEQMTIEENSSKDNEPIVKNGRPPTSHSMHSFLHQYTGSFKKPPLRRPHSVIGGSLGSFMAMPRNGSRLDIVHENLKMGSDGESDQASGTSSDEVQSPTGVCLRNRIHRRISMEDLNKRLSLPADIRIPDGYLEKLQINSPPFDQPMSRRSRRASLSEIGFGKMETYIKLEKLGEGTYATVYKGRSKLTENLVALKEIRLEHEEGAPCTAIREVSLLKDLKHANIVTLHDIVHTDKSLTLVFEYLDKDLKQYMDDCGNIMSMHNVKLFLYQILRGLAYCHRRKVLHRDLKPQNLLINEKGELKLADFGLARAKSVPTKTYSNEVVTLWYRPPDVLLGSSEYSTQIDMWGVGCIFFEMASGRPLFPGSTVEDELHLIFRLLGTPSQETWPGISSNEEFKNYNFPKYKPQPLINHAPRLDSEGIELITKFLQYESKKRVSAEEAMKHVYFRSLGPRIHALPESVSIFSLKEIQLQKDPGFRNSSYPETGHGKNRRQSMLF
CDK17/Cyclin Y, sequence (Q8ND76 whole entry partner): as the sequence (Q8ND76 whole entry partner) above
CDK6/Cyclin D1, sequence (Q00534 whole entry): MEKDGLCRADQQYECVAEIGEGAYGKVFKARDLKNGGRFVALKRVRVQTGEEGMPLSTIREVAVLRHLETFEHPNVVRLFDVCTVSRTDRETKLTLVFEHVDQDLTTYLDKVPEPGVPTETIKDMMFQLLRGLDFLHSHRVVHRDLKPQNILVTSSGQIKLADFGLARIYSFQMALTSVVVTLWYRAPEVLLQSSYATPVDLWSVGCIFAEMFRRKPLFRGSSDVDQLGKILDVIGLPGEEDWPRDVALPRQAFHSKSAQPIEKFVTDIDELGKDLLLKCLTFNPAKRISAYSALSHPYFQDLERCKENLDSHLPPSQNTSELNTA
CDK6/Cyclin D1, sequence (P24385 whole entry partner): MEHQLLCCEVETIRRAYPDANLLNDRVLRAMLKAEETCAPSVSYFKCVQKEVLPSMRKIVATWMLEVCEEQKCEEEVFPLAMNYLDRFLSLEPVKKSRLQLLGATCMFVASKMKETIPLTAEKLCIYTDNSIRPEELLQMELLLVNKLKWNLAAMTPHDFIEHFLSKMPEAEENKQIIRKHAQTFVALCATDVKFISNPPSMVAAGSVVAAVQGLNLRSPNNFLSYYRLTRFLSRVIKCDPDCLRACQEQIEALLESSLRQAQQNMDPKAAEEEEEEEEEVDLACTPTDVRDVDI
CDK12/Cyclin K, sequence (Q9NYV4 1-1481 isoform Q9NYV4-2): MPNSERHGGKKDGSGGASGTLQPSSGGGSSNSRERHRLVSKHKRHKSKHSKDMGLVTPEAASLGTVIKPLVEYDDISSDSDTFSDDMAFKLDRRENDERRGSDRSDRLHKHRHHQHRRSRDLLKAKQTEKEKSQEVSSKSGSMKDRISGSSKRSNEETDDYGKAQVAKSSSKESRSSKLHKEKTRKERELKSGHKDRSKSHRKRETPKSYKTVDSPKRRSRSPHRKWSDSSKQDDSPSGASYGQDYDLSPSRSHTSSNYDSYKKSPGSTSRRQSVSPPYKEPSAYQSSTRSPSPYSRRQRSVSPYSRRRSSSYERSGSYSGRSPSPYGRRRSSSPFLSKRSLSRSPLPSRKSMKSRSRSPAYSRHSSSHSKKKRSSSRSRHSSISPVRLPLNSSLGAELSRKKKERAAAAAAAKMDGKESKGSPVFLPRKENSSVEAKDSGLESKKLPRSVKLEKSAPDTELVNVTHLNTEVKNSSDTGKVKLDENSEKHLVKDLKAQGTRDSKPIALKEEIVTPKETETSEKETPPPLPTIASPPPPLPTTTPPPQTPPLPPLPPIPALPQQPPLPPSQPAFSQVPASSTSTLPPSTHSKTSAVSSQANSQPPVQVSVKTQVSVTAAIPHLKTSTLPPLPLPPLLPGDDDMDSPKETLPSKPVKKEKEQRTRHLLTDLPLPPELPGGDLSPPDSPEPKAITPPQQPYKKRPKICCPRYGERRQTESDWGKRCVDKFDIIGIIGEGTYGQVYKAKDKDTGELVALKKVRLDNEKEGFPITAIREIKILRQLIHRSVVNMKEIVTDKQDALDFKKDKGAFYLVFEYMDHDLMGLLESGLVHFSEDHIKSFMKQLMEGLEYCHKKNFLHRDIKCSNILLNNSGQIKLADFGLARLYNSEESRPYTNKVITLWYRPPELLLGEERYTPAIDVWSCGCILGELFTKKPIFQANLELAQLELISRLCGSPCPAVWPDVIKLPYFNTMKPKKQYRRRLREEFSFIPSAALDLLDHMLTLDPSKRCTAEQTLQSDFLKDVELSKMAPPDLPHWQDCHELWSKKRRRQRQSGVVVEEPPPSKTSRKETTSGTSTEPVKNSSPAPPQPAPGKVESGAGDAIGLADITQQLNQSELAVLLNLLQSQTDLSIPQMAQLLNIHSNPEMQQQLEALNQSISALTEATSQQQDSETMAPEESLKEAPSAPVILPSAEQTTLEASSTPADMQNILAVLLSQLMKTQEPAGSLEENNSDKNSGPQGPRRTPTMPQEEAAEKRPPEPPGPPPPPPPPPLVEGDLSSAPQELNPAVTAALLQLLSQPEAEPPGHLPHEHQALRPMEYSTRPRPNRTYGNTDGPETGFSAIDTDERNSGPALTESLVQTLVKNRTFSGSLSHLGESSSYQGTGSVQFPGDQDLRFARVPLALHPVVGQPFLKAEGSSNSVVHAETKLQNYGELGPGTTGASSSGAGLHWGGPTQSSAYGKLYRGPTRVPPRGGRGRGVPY
CDK12/Cyclin K, sequence (O75909 whole entry partner): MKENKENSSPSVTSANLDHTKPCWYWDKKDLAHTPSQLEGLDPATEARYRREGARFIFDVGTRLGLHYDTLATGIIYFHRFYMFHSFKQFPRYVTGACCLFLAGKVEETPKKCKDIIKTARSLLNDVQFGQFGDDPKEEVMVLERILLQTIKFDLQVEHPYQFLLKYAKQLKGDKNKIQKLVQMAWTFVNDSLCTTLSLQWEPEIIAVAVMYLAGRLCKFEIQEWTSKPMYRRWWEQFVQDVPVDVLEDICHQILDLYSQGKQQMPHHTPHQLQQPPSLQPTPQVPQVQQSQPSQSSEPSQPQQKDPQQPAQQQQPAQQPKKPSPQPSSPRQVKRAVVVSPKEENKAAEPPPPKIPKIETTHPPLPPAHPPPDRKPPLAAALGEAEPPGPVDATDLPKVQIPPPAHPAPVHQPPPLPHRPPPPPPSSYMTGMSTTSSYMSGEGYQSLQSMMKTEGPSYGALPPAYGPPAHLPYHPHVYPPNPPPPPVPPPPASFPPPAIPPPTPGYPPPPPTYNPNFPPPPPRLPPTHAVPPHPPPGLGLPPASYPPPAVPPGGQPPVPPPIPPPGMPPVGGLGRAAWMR
CDK8/Cyclin C, sequence (P49336 whole entry): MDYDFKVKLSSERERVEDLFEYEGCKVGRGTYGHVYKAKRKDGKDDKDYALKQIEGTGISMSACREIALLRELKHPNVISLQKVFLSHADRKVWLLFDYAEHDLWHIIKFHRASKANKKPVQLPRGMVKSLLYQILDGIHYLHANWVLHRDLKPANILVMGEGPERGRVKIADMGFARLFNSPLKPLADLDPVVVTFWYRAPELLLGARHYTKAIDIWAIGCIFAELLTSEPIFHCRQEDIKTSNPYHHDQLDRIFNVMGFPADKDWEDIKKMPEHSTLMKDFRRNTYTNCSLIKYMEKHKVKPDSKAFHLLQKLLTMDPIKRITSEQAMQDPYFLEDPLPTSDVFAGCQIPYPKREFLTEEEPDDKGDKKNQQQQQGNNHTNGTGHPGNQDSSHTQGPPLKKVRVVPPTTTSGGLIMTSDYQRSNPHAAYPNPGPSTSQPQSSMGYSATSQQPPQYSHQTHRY
CDK8/Cyclin C, sequence (P24863 whole entry partner): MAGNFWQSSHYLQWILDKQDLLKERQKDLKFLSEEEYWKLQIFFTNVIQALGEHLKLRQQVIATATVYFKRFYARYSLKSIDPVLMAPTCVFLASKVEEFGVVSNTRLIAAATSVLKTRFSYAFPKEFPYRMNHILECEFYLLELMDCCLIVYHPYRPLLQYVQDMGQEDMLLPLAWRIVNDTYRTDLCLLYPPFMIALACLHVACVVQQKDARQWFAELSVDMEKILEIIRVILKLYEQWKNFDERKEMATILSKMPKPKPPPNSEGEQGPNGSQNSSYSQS

NS(=O)(=O)c1ccc(Nc2nc(OCC3CCCCC3)c3nc[nH]c3n2)cc1 [NU6102]
inhibition at 10 µM (CDK17/Cyclin Y; average): 44.7% | inhibition at 10 µM (CDK17/Cyclin Y; experiment 1): 40.2% | inhibition at 10 µM (CDK17/Cyclin Y; experiment 2): 49.2% | inhibition at 10 µM (CDK15/Cyclin Y; CDK15/Y, average, read-out: Inhibition at 10µM (%)): 28.3% | inhibition at 10 µM (CDK15/Cyclin Y; CDK15/Y, experiment 2, read-out: Inhibition at 10µM (%)): 10.5% | inhibition at 10 µM (CDK15/Cyclin Y; read-out: Inhibition at 10µM (%), CDK15/Y, experiment 1): 46.2% | inhibition at 10 µM (CDK19/Cyclin C; average): 13% | inhibition at 10 µM (CDK19/Cyclin C; experiment 1): 21% | inhibition at 10 µM (CDK19/Cyclin C; experiment 2): 4.9% | inhibition at 10 µM (CDK20/Cyclin H; experiment 1): 59% | inhibition at 10 µM (CDK20/Cyclin H; experiment 2): 76.6% | inhibition at 10 µM (CDK18/Cyclin Y; average): 30.2% | inhibition at 10 µM (CDK18/Cyclin Y; experiment 1): 20.4% | inhibition at 10 µM (CDK18/Cyclin Y; experiment 2): 40.1% | inhibition at 10 µM (CDK6/Cyclin D1; average): 82.2% | inhibition at 10 µM (CDK6/Cyclin D1; experiment 1): 70.6% | inhibition at 10 µM (CDK6/Cyclin D1; experiment 2): 93.7% | inhibition at 10 µM (CDK11A/Cyclin L2; average): 14% | inhibition at 10 µM (CDK11A/Cyclin L2; experiment 1): 10.4% | inhibition at 10 µM (CDK11A/Cyclin L2; experiment 2): 17.6% | IC50 (all 21 human CDKs): > 1000 nM | inhibition at 10 µM (CDK10/Cyclin L2; average): 64% | inhibition at 10 µM (CDK10/Cyclin L2; experiment 1): 47.6% | inhibition at 10 µM (CDK10/Cyclin L2; experiment 2): 80.4% | inhibition at 10 µM (CDK13/Cyclin K; average): 18.1% | inhibition at 10 µM (CDK13/Cyclin K; experiment 1): 10.3% | inhibition at 10 µM (CDK13/Cyclin K; experiment 2): 25.9% | inhibition at 10 µM (CDK8/Cyclin C; average): 11.3% | inhibition at 10 µM (CDK8/Cyclin C; experiment 1): 17.2% | inhibition at 10 µM (CDK8/Cyclin C; experiment 2): 5.4% | inhibition at 10 µM (CDK12/Cyclin K; average): 3.2% | inhibition at 10 µM (CDK12/Cyclin K; experiment 1): 8.2% | inhibition at 10 µM (CDK12/Cyclin K; experiment 2): -1.8% | inhibition at 10 µM (CDK16/Cyclin Y; experiment 1): 66.5% | inhibition at 10 µM (CDK16/Cyclin Y; experiment 2): 85.2% | inhibition at 10 µM (CDK11B/Cyclin L2; average): 27.3% | inhibition at 10 µM (CDK11B/Cyclin L2; experiment 1): 13.2% | inhibition at 10 µM (CDK11B/Cyclin L2; experiment 2): 41.4% | inhibition at 10 µM (CDK14/Cyclin Y; average): 13.8% | inhibition at 10 µM (CDK14/Cyclin Y; experiment 1): 9.9% | inhibition at 10 µM (CDK14/Cyclin Y; experiment 2): 17.7%
